≈ marks a conversion by molar mass, not a printed value.
Columns and labels:
ACVR2B = target: T1, ACVR2B (Homo sapiens, UniProt Q13705); test: KINOMEscan; format: binding; settings: read-out: %Ctrl @ 10000nM
T1 construct: purchased DiscoverX KINOMEscan

CASK = target: T2, CASK (Homo sapiens, UniProt O14936); test: KINOMEscan; format: binding; settings: read-out: %Ctrl @ 10000nM
T2 construct: purchased DiscoverX KINOMEscan

CDC2L2 = target: T3, CDC2L2 (Homo sapiens, UniProt Q9UQ88); test: KINOMEscan; format: binding; settings: read-out: %Ctrl @ 10000nM
T3 construct: purchased DiscoverX KINOMEscan

CSF1R-autoinhibited = target: T4, CSF1R-autoinhibited (Homo sapiens, UniProt P07333); test: KINOMEscan; format: binding; settings: read-out: %Ctrl @ 10000nM
T4 construct: purchased DiscoverX KINOMEscan

EGFR(T790M) = target: T5, EGFR(T790M) (Homo sapiens, UniProt P00533, T790M); test: KINOMEscan; format: binding; settings: read-out: %Ctrl @ 10000nM
T5 construct: purchased DiscoverX KINOMEscan

HPK1 = target: T6, HPK1 (Homo sapiens, UniProt Q92918); test: KINOMEscan; format: binding; settings: read-out: %Ctrl @ 10000nM
T6 construct: purchased DiscoverX KINOMEscan

[1] = target: T7, JAK2(JH1domain-catalytic) (Homo sapiens, UniProt O60674); test: KINOMEscan; format: binding; settings: read-out: %Ctrl @ 10000nM
T7 construct: JAK2(JH1domain-catalytic); purchased DiscoverX KINOMEscan

LRRK2 = target: T8, LRRK2 (Homo sapiens, UniProt Q5S007); test: KINOMEscan; format: binding; settings: read-out: %Ctrl @ 10000nM
T8 construct: purchased DiscoverX KINOMEscan

LZK = target: T9, LZK (Homo sapiens, UniProt O43283); test: KINOMEscan; format: binding; settings: read-out: %Ctrl @ 10000nM
T9 construct: purchased DiscoverX KINOMEscan

MAP3K2 = target: T10, MAP3K2 (Homo sapiens, UniProt Q9Y2U5); test: KINOMEscan; format: binding; settings: read-out: %Ctrl @ 10000nM
T10 construct: purchased DiscoverX KINOMEscan

MUSK = target: T11, MUSK (Homo sapiens, UniProt O15146); test: KINOMEscan; format: binding; settings: read-out: %Ctrl @ 10000nM
T11 construct: purchased DiscoverX KINOMEscan

NDR2 = target: T12, NDR2 (Homo sapiens, UniProt Q9Y2H1); test: KINOMEscan; format: binding; settings: read-out: %Ctrl @ 10000nM
T12 construct: purchased DiscoverX KINOMEscan

PIM3 = target: T13, PIM3 (Homo sapiens, UniProt Q86V86); test: KINOMEscan; format: binding; settings: read-out: %Ctrl @ 10000nM
T13 construct: purchased DiscoverX KINOMEscan

RIOK1 = target: T14, RIOK1 (Homo sapiens, UniProt Q9BRS2); test: KINOMEscan; format: binding; settings: read-out: %Ctrl @ 10000nM
T14 construct: purchased DiscoverX KINOMEscan

[2] = target: T15, RSK1(Kin.Dom.1-N-terminal) (Homo sapiens, UniProt Q15418); test: KINOMEscan; format: binding; settings: read-out: %Ctrl @ 10000nM
T15 construct: RSK1(Kin.Dom.1-N-terminal); purchased DiscoverX KINOMEscan

[3] = target: T16, RSK4(Kin.Dom.1-N-terminal) (Homo sapiens, UniProt Q9UK32); test: KINOMEscan; format: binding; settings: read-out: %Ctrl @ 10000nM
T16 construct: RSK4(Kin.Dom.1-N-terminal); purchased DiscoverX KINOMEscan

SYK = target: T17, SYK (Homo sapiens, UniProt P43405); test: KINOMEscan; format: binding; settings: read-out: %Ctrl @ 10000nM
T17 construct: purchased DiscoverX KINOMEscan

C3A cells = test: Intracellular CoA and metabolite levels in C3A cells; format: cell-based, human; settings: 24 h
Method: HEK293T cells (ATCC, #CRL-3216) were maintained in Dulbecco’s modified Eagle’s medium (DMEM, Biowhittaker/Lonza) supplemented with 10% FCS. Human C3A [HepG2/C3A, derivative of HepG2] cells (ATCC #CRL-10741) were purchased from ATCC® and maintained in Eagle’s minimum Essential medium (ATCC) supplemented with 2 mM glutamine, 10% fetal bovine serum (FCS, Altanta Biologicals), 50 U/ml penicillin and […] streptomycin. Both cell lines were confirmed to be mycoplasma-free. […]. […] After 24 h of treatment (total 48 h after transfection) the cells were washed with PBS and harvested and subjected to either total CoA or acetyl-CoA determinations.
Prior to labeling, cells were seeded at a density of 2–3 × 10^6 in 60 mm-dishes in reconstituted DMEM without added pantothenate and allowed to adhere overnight. The labeling was initiated by replacing the medium with 2 ml of labeling medium containing 0.1% dimethylsulfoxide (DMSO; control) or 10 μM of the compound in 0.1% DMSO. Cells were incubated for 24 h, the labeling medium was removed, and cells were washed with phosphate buffered saline and lysed by sonication in 20 mM Tris-HCl, pH 7.5, 2 mM DTT, 5 mM EDTA and 50 mM NaF. The lysates were fractionated by thin-layer chromatography after removal of the cell debris by centrifugation. The samples were spotted on Silica Gel H plates and resolved with 95% ethanol:28% ammonium hydroxide (4/1, v/v). The distribution of radioactivity on the plate was quantified using a Bioscan Imager (Bioscan, Inc.) together with quantification of the total cellular radioactivity determined by a Liquid Scintillation Analyzer (PerkinElmer Tri-Carb 2910 TR). Triplicate culture dishes were labeled for each group plus a dish for each group for determination of cell counts and viability using a Nucleocounter (New Brunswick Scientific) according to the manufacturer’s directions. The experiments were repeated twice in duplicate and the data represented is an overall average ± SEM.
Cultured cells or frozen tissues were resuspended in 2 ml cold water to which 500 μl of 0.25 M KOH was added, derivatized with monobromobimane (mBBr, Life technologies) and quantified by HPLC[23]. For acetyl-CoA determinations, C3A cells were resuspended in 1 ml water, added to 2 ml of methanol and 1 ml chloroform, and incubated on ice for 15 min. Chloroform 1.5 ml, 1.2 ml water and 30 pmol of [^13C2]acetyl-CoA (Sigma) was added, and centrifuged at 2000×g for 10 min. The top layer was loaded on a 2-(2-pyridyl) ethyl solid phase extraction column which was equilibrated with 1 ml 50% methanol/2% acetic acid. The column was washed twice with 1 ml 50% methanol/2% acetic acid and 1 ml water. CoA and thioesters were eluted twice with 1 ml 95% ethanol containing 50 mM ammonium hydroxide. Samples were resuspended in 90% methanol containing 15 mM ammonium hydroxide.
The mBBr derivatized sample was fractionated by reverse-phase HPLC using a Gemini C18 3 μm column (150 × 4.60 mm) from Phenomenex. The chromatography system was a Waters e2695 separation module with a UV/Vis and fluorescence detector and controlled by Empower 3 software. Solvent A was 50 mM potassium phosphate pH 4.6, and solvent B was 100% acetonitrile. Twenty microliters of sample was injected onto the column, and the flow rate was 0.5 ml/min. The HPLC program was the following: starting solvent mixture of 90% A/10% B, 0–2 min isocratic with 10% B, 2–6 min linear gradient from 10% B to 15% B, 6–18 min concave gradient from 15% B to 40% B, 18–23 min isocratic with 40% B, 23–25 min linear gradient from 40 to 10%, and 25–30 min isocratic with 10% B. The UV/vis detector was set at 393 nm, and the fluorescence detector was set with excitation at 393 nm and emission at 470 nm. […]

T12 sequence (Q9Y2H1 whole entry): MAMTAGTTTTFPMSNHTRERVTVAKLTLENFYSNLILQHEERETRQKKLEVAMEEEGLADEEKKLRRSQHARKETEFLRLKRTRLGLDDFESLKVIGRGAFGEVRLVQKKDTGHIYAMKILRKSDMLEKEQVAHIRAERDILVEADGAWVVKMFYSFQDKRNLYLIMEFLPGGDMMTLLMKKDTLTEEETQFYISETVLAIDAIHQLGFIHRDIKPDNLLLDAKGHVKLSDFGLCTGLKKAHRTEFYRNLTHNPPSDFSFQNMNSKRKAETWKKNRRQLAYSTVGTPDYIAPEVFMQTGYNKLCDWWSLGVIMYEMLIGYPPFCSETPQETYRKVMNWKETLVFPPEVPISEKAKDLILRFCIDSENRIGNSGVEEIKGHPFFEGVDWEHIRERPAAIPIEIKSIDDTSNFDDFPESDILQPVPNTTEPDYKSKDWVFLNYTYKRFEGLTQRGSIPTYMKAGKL
T11 sequence (O15146 24-869): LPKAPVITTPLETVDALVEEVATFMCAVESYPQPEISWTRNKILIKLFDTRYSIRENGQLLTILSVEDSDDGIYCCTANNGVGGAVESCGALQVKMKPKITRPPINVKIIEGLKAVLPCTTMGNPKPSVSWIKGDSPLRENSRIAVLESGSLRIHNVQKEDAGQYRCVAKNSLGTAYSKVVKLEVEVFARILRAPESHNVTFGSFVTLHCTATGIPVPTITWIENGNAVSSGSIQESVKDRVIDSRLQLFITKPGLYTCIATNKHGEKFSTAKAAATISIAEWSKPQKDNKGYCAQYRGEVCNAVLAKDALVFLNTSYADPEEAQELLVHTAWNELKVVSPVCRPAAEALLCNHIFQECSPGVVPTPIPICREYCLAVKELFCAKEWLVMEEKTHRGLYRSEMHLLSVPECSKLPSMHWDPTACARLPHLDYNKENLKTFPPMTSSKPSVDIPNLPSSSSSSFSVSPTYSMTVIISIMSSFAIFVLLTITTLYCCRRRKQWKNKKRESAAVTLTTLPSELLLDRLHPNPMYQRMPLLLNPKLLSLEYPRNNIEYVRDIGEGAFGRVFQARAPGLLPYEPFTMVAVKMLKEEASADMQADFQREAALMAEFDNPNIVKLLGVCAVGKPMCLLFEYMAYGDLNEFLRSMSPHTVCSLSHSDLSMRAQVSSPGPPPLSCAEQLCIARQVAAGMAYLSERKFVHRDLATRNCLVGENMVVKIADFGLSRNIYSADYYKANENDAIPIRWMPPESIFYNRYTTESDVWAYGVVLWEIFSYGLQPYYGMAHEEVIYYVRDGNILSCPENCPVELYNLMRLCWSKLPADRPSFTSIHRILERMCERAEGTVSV
T15 sequence (Q15418 1-391 limits assumed): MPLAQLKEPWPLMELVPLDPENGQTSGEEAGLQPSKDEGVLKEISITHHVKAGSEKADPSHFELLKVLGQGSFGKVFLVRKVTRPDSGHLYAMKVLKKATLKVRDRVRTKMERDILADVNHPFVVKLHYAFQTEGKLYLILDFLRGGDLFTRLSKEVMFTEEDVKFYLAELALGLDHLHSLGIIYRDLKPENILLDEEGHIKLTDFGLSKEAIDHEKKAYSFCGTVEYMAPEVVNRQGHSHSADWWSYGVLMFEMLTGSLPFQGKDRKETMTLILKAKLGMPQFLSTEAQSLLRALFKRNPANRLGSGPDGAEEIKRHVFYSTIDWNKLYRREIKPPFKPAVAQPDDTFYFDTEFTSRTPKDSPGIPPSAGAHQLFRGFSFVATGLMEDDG
T4 sequence (P07333 539-972 limits assumed): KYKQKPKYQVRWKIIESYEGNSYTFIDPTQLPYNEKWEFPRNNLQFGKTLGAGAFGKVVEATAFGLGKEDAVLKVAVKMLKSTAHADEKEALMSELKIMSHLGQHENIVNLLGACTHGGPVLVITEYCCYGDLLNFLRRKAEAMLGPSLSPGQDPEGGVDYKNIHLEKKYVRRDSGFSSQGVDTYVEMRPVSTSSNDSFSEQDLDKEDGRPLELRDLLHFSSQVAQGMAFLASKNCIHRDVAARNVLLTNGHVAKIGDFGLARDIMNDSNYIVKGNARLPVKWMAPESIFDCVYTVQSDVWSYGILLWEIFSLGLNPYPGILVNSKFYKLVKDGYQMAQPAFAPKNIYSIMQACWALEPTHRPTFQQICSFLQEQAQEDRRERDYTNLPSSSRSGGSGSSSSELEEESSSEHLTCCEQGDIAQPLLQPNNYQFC
T3 sequence (Q9UQ88 whole entry): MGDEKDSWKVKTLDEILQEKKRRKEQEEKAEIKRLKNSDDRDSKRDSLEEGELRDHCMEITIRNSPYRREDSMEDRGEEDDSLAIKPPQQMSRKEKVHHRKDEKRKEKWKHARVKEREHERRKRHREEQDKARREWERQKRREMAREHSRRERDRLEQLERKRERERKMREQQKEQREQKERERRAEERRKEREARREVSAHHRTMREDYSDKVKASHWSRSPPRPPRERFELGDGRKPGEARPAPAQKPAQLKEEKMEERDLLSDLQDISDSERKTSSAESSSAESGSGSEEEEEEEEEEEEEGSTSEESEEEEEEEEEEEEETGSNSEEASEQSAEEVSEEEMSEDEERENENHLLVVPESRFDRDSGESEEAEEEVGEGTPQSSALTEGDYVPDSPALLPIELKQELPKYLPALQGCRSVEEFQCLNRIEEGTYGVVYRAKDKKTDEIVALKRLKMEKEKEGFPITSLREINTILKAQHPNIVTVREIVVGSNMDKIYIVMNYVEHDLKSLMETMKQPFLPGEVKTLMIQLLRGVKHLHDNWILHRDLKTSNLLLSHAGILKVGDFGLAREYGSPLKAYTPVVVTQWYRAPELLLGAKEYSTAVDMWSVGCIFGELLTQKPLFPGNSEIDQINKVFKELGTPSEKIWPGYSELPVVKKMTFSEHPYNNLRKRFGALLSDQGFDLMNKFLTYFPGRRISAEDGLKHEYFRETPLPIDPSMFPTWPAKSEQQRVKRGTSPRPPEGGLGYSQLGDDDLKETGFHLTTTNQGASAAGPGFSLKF
T16 sequence (Q9UK32 1-400 limits assumed): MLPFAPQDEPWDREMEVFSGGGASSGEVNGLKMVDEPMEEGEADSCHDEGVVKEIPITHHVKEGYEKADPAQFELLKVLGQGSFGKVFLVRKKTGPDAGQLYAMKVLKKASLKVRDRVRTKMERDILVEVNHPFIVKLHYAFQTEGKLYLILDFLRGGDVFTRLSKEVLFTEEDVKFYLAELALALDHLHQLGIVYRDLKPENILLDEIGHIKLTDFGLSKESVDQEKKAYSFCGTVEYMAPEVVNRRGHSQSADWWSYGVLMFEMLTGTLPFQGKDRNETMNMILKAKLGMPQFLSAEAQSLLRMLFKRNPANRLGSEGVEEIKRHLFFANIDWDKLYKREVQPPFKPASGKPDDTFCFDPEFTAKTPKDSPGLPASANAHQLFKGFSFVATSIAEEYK
T9 sequence (O43283 whole entry): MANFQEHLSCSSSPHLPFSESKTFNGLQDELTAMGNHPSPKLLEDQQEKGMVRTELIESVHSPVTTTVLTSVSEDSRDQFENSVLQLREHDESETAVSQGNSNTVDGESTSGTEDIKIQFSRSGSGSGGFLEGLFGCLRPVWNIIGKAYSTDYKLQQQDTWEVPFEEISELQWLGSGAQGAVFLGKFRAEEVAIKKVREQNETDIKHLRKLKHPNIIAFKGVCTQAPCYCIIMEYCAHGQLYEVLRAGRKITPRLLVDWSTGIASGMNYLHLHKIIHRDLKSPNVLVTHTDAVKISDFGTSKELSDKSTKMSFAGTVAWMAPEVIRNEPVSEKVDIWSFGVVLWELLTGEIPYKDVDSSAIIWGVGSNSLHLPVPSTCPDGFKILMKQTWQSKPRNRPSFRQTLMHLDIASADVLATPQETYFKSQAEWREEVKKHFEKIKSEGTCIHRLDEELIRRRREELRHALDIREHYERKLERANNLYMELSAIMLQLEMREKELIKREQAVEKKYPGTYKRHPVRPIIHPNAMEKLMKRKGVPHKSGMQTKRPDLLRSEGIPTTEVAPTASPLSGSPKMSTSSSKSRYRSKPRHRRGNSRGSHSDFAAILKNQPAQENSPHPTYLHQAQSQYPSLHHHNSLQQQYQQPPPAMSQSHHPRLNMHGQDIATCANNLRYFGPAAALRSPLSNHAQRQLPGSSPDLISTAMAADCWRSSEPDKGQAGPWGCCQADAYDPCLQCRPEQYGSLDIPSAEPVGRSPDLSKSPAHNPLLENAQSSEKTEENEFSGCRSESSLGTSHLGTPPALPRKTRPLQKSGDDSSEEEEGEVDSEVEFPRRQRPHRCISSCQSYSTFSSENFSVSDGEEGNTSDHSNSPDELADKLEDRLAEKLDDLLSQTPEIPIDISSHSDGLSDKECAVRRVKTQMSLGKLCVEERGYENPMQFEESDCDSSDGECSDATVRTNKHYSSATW
T14 sequence (Q9BRS2 whole entry): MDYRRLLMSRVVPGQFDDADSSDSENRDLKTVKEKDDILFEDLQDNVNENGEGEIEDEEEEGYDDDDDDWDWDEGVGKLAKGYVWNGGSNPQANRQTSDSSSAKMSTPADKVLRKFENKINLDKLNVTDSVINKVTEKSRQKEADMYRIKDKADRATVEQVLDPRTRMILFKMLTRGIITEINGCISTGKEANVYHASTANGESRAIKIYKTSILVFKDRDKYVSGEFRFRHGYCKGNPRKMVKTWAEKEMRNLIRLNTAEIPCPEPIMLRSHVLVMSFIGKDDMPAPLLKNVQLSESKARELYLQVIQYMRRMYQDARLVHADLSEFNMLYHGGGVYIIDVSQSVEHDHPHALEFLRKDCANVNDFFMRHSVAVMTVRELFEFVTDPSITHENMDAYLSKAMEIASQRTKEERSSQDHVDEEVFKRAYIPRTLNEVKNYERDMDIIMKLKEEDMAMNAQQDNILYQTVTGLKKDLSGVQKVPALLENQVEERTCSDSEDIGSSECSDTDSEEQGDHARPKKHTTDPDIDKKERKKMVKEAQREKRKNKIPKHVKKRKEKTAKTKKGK

CC(C)c1ccc(CC(=O)N2CCN(c3ccc(C#N)nn3)CC2)cc1 [PZ-2891, 6-(4-(2-(4-isopropylphenyl)acetyl)piperazin-1-yl)pyridazine-3-carbonitrile]
remaining binding at 10 µM (ACVR2B): 100%
remaining binding at 10 µM (CASK): 85%
remaining binding at 10 µM (CDC2L2): 87%
remaining binding at 10 µM (CSF1R-autoinhibited): 93%
remaining binding at 10 µM (EGFR(T790M)): 78%
remaining binding at 10 µM (HPK1): 100%
remaining binding at 10 µM [1]: 88%
remaining binding at 10 µM (LRRK2): 100%
remaining binding at 10 µM (LZK): 89%
remaining binding at 10 µM (MAP3K2): 96%
remaining binding at 10 µM (MUSK): 95%
remaining binding at 10 µM (NDR2): 94%
remaining binding at 10 µM (PIM3): 58%
remaining binding at 10 µM (RIOK1): 100%
remaining binding at 10 µM [2]: 100%
remaining binding at 10 µM [3]: 97%
remaining binding at 10 µM (SYK): 82%
intracellular CoA ([3H]pantothenate labeling) (C3A cells; 10 μM, C3A cells): increased the amount of intracellular CoA
intracellular pantothenate ([3H]pantothenate labeling) (C3A cells; 10 μM, C3A cells): lowered intracellular pantothenate
acetyl-CoA levels in C3A cells (C3A cells; 10 μM, mass spectrometry): higher acetyl-CoA levels
total intracellular CoA levels in C3A cells (C3A cells; increasing concentrations (20 and 50 μM less activating)): CoA progressively increased up to 10 μM
solubility (Solubility at pH 7.4): 23 µM (≈ 8.04 µg/mL)

From paper PMC6199309, “A therapeutic approach to pantothenate kinase associated neurodegeneration” (Nature Communications, 2018)
